Structures are written as SMILES. Where two headings read alike, the source gives them in different places. Some results are limits rather than exact numbers.

Data set [1] addresses FGFR1 (Homo sapiens, UniProt P11362). The data set can be described thus: Z'-LYTE kinase enzyme inhibition assay, FGFR1. The class given is biochemical. The note with it: FGFR1-IC50.
The subject of data set [2] is FGFR1. The data set can be described thus: Z'-LYTE kinase enzyme inhibition assay, FGFR1. In kind it is biochemical. Particulars: for FGFR1-SI: selectivity index IC50/IC50, lowest IC50 of the compound = 1.
The target of data set [3] is FGFR3 (Homo sapiens, UniProt P22607). Description: biochemical. The class given is biochemical. The note with it: FGFR3-IC50.
Data set [4] deals with FGFR3. Description: biochemical. The class given is biochemical.
The target in the next data set is FGFR4 (Homo sapiens, UniProt P22455). Description: biochemical. In kind it is biochemical.
A further data set can be described thus: WST-1 cytotoxicity assay. The class given is cell-based, mouse. Particulars: mouse, NIH-3T3 cells (mouse embryonic fibroblasts). In general terms: Formazan colour is commonly taken as a measure of viable cells.
Another data set concerns NIH-3T3 cells. The data set can be described thus: WST-1 cytotoxicity assay. The class given is cell-based, mouse. The note with it: Mus musculus, NIH3T3, 48 h, read-out: NIH-3T3 Cells IC50.
The target in data set [5] is FGFR2 (Homo sapiens, UniProt P21802). Description: biochemical. The note with it: FGFR2-IC50.
Data set [6] has as its system FGFR2. Description: biochemical. Particulars: for FGFR selectivity (in words): among FGFR1-4.
[7] abbreviates: selectivity index IC50/IC50, lowest IC50 of the compound = 1.

Chain of FGFR4 (P22455 22-802): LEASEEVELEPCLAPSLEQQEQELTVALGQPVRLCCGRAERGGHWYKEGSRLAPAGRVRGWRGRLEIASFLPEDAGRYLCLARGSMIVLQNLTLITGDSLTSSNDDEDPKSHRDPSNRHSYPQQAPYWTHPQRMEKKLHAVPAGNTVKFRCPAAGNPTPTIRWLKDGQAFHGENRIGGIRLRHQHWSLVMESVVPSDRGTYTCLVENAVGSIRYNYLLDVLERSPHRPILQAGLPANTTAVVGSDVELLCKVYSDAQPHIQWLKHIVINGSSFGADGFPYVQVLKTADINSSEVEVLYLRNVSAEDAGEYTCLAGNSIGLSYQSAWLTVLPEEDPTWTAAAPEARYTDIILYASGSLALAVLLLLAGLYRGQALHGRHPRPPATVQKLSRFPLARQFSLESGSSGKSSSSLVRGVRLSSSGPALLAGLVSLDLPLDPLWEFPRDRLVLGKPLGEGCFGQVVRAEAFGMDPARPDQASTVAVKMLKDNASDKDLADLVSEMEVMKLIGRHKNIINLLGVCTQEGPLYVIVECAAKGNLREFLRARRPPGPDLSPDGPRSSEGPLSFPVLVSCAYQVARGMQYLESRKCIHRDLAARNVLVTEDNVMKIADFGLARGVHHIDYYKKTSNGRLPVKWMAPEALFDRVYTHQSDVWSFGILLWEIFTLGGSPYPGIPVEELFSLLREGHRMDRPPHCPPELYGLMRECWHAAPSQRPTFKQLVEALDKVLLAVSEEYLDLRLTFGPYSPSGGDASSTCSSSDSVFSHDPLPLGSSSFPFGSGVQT
Chain of FGFR3 (Homo sapiens, UniProt P22607) (P22607 23-806): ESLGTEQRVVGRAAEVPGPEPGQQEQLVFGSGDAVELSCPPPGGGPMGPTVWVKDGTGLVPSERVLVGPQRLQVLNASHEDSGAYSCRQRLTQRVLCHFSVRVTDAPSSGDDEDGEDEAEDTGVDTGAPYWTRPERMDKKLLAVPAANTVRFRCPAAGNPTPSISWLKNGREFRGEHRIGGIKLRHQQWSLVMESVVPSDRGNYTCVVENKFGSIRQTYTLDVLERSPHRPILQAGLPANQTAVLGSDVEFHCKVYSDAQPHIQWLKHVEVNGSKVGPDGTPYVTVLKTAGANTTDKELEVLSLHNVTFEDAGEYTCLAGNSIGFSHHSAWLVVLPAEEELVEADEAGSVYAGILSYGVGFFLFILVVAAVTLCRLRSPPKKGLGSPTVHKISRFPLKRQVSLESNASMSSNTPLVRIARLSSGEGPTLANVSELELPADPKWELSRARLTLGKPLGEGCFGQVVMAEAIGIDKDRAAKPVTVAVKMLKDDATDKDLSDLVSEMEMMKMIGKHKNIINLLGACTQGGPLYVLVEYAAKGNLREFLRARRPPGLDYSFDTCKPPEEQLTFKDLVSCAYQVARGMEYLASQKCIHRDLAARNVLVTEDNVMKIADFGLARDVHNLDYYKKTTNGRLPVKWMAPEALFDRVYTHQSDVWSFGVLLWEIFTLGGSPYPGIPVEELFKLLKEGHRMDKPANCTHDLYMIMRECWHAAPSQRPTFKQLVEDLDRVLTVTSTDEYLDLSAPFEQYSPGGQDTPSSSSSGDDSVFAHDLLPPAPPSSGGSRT
Chain of FGFR2 (Homo sapiens, UniProt P21802) (P21802 22-821): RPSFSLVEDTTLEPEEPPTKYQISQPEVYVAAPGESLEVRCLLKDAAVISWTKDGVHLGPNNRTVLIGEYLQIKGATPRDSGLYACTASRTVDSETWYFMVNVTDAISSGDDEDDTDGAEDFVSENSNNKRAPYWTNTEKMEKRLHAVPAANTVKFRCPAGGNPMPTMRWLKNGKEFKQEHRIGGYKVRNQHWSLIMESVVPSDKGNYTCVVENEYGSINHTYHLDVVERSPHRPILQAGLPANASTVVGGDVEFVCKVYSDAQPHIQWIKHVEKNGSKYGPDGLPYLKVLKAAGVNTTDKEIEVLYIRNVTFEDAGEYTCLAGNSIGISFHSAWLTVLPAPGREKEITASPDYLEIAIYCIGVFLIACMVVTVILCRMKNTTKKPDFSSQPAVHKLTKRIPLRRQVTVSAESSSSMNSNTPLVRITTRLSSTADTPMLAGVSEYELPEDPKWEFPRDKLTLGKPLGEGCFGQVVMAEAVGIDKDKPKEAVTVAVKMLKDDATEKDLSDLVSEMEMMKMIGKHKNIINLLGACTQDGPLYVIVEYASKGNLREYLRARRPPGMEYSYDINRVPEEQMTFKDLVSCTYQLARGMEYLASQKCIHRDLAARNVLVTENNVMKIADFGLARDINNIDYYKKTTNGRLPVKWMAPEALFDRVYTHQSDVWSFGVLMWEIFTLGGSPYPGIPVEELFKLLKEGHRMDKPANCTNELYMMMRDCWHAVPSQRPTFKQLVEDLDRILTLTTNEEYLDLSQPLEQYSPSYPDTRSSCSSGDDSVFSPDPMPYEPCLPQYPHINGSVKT
Chain of FGFR1 (Homo sapiens, UniProt P11362) (P11362 22-822): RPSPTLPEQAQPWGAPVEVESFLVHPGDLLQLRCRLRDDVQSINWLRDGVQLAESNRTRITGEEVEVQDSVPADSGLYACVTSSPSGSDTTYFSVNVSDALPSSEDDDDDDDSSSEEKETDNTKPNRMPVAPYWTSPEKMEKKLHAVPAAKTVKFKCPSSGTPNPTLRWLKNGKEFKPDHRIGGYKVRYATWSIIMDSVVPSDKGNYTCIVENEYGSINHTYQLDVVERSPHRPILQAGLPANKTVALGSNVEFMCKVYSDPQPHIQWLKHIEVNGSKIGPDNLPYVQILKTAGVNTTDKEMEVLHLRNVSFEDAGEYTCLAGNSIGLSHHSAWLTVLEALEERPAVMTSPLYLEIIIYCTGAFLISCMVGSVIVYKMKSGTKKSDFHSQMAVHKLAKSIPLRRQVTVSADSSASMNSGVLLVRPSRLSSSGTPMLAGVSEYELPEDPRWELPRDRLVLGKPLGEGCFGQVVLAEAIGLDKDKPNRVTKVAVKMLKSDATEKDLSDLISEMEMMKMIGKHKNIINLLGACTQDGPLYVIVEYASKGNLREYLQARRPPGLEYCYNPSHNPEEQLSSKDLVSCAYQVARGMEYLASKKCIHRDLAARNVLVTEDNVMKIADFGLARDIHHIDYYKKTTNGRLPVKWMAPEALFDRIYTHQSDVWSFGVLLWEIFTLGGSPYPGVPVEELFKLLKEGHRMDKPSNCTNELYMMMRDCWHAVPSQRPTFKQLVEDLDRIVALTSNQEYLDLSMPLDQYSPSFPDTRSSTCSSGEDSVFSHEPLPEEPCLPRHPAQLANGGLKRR

On to `O=CN1CCN(c2ccc(/C=C3/C(=O)Nc4ccc(-c5ccc(C(=O)N6CCOCC6)cc5)cc43)cc2)CC1` [Compound A27, (E)-4-{4-{ {5-[4-(morpholine-4-carbonyl)phenyl]-2-oxoindolin-3-ylidene}methyl}phenyl}piperazine-1-carbaldehyde], for which the IC50 (usually the midpoint of a concentration-inhibition curve) against FGFR1 [1] was 12 ± 0.736 nM; on FGFR3 [3], 131 ± 4.23 nM; on FGFR4 it was 9240 ± 265 nM; in the data set on NIH-3T3 cells it was 1230 ± 467 nM. Besides, the FGFR1-SI in the data set on FGFR1 [2] came to 1. Moreover, the FGFR3-SI in the data set on FGFR3 [4] was determined as 10.962. For the same compound, the IC50 at 48 h in the data set “WST-1 cytotoxicity assay” was more than 1000 nM.

With `CN1CCN(c2ccc(/C=C3/C(=O)Nc4ccc(-c5ccc6cc(O)ccc6c5)cc43)cc2)CC1` [Compound A13, (E)-5-(6-hydroxynaphthalen-2-yl)-3-[4-(4-methylpiperazin-1-yl)benzylidene]indolin-2-one], the 50% inhibitory concentration (IC50) at FGFR1 [1] was determined as 7 ± 0.206 nM; against FGFR2 [5] it was 1020 ± 67.3 nM; on FGFR3 [3], 17100 ± 294 nM; against FGFR4, 8990 ± 314 nM; with NIH-3T3 cells, 30100 ± 3230 nM. For the same compound, in the data set with FGFR1 [2] (among FGFR1-4), the “FGFR selectivity (in words)” value was “selectivity to FGFR1”. The compound further registered an FGFR1-SI in the data set on FGFR1 [2] of 1. For the same compound, the FGFR2-SI with FGFR2 [6] is on record as 146.083. The compound further had an FGFR3-SI in the data set on FGFR3 [4] of 2442.824. Further, the FGFR4-SI at FGFR4 is recorded as 1285.449. In “WST-1 cytotoxicity assay”, this compound yielded a concentration for half-maximal inhibition (IC50) at 48 h of more than 1000 nM.

`O=C1Nc2ccc(-c3ccc4cc(O)ccc4c3)cc2/C1=C\c1ccc(N2CCOCC2)cc1` [Compound A1, (E)-5-(6-hydroxynaphthalen-2-yl)-3-(4-morpholinobenzylidene)indolin-2-one]: the 50% inhibitory concentration (IC50) is 19.8 ± 3.32 nM on FGFR1 [1]; 5.95 nM at FGFR2 [5]; 1420 ± 423 nM against FGFR3 [3]; 37100 ± 965 nM against FGFR4; 1580 ± 171 nM in the data set with NIH-3T3 cells. In addition, the “better inhibitory potency against FGFR2 than FGFR1” value in the data set on FGFR1 [2] (FGFR1 in compare to FGFR2) is reported as 3.3 fold. Further, the FGFR1-SI in the data set with FGFR1 [2] was determined as 3.333. Besides, in the data set on FGFR2 [6], the “FGFR selectivity (in words)” value is on record as “for FGFR2”. In addition, in the data set with FGFR2 [6] (setting [7]), the FGFR2-SI came to 1. In addition, the FGFR3-SI in the data set on FGFR3 [4] worked out at 238.648. The “better inhibitory potency against FGFR2 than FGFR3” value in the data set on FGFR3 [4] (FGFR3 in compare to FGFR2) worked out at 238.6 fold. At FGFR4, this compound yielded an FGFR4-SI of 6247.898. In addition, at FGFR4 (FGFR4 in compare to FGFR2), the “better inhibitory potency against FGFR2 than FGFR4” value was found to be 6247.9 fold.

As to `O=C1Nc2ccc(-c3ccc(-c4ccc(O)cc4)cc3)cc2/C1=C\c1ccc(N2CCOCC2)cc1` [Compound A2, (E)-5-(4'-hydroxy-[1,1'-biphenyl]-4-yl)-3-(4-morpholinobenzylidene)indolin-2-one], the IC50 on FGFR1 [1] was 219 ± 4.32 nM; against FGFR2 [5] it was 8.44 ± 0.237 nM; against FGFR3 [3], 3460 ± 510 nM; against FGFR4, 21200 ± 351 nM; in the data set on NIH-3T3 cells, 949 ± 24.7 nM. The same compound showed an FGFR1-SI in the data set on FGFR1 [2] of 25.948. Also, the “FGFR selectivity (in words)” value in the data set on FGFR2 [6] was “for FGFR2”. Further, in the data set on FGFR2 [6] (setting [7]), the FGFR2-SI is reported as 1. Also, the FGFR3-SI in the data set with FGFR3 [4] is on record as 409.791. For the same compound, the FGFR4-SI on FGFR4 stood at 2514.228.
